This is an account of results in PMC3914206.

Holding throughout (assay type): binding
Holding throughout (conditions): Compound Concentration 10 µM

Assay [1] concerns the target T1, panel of 442 kinases (Homo sapiens, UniProt P07333).
T1 construct: purchased KINOMEscan
The source says:
(§1) We assessed the selectivity of members of this scaffold using the KINOMEscan methodology across a near comprehensive panel of 442 kinases [[18,27]].

Assay [2] addresses T2, panel of 442 kinases (Homo sapiens, UniProt P08581, Y1235D).
T2 construct: purchased KINOMEscan
Text: as §1

Assay [3] deals with T3, panel of 442 kinases (Homo sapiens, UniProt P54753).
T3 construct: purchased KINOMEscan
T3 sequence (P54753 34-998): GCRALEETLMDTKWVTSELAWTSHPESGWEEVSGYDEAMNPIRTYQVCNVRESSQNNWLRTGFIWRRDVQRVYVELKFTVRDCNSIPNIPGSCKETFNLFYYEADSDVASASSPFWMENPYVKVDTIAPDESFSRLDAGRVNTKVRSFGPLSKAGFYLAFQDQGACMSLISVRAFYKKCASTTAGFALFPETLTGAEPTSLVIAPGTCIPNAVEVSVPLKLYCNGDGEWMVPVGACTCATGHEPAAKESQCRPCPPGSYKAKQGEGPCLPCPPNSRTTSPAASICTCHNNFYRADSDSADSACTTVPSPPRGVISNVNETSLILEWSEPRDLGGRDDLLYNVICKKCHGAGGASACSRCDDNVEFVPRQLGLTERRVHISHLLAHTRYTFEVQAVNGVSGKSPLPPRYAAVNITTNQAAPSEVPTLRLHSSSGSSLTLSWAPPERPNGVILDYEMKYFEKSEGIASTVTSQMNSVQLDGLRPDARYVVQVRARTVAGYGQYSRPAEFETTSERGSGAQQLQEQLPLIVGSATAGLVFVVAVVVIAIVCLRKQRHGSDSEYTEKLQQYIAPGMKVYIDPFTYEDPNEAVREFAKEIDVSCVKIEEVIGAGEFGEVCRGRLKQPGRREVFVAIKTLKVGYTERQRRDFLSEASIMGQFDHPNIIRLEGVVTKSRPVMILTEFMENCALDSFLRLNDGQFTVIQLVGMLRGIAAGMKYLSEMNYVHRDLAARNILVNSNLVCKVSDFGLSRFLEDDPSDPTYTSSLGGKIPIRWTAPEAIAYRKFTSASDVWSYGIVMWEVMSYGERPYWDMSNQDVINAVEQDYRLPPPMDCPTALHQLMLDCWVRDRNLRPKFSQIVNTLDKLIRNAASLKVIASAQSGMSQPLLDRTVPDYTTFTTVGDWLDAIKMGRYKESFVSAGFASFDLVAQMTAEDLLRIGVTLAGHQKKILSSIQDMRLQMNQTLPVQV
Text: as §1

T2 sequence (P08581 25-1390 Y1235D): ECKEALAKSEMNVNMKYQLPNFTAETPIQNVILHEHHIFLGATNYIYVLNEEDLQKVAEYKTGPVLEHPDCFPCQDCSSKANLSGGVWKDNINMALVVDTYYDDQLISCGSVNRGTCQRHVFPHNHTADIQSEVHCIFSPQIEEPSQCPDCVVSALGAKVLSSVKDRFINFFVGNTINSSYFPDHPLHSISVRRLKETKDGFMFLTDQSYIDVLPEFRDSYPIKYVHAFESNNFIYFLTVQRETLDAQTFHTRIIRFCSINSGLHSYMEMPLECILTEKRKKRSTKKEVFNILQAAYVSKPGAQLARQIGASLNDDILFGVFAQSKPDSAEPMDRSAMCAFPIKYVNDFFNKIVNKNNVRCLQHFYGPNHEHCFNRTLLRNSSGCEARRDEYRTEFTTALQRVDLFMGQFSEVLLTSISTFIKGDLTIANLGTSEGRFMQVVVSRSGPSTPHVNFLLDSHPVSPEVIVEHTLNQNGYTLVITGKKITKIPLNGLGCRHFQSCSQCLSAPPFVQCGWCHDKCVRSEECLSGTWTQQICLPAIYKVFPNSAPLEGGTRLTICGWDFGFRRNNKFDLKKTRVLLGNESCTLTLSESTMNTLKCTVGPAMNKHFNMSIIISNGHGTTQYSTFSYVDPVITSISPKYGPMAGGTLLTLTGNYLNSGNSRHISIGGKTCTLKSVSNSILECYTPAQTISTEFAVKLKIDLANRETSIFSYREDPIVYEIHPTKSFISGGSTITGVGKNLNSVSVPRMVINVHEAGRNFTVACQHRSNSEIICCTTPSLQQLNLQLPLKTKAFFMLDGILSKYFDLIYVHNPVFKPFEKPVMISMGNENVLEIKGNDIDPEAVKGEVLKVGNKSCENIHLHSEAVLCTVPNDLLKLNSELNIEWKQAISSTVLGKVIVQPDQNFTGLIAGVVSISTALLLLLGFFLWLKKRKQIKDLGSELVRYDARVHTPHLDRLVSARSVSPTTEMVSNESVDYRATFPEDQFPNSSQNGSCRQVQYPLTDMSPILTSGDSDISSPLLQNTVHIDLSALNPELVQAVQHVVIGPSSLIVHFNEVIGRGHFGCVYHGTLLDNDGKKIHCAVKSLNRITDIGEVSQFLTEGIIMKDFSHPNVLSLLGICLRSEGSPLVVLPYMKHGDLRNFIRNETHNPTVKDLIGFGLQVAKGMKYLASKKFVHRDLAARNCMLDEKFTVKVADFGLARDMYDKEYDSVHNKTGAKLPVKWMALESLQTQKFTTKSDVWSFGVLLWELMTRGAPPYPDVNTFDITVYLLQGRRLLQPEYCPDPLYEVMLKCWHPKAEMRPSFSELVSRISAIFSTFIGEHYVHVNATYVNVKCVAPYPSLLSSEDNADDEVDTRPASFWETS
T1 sequence (P07333 20-972): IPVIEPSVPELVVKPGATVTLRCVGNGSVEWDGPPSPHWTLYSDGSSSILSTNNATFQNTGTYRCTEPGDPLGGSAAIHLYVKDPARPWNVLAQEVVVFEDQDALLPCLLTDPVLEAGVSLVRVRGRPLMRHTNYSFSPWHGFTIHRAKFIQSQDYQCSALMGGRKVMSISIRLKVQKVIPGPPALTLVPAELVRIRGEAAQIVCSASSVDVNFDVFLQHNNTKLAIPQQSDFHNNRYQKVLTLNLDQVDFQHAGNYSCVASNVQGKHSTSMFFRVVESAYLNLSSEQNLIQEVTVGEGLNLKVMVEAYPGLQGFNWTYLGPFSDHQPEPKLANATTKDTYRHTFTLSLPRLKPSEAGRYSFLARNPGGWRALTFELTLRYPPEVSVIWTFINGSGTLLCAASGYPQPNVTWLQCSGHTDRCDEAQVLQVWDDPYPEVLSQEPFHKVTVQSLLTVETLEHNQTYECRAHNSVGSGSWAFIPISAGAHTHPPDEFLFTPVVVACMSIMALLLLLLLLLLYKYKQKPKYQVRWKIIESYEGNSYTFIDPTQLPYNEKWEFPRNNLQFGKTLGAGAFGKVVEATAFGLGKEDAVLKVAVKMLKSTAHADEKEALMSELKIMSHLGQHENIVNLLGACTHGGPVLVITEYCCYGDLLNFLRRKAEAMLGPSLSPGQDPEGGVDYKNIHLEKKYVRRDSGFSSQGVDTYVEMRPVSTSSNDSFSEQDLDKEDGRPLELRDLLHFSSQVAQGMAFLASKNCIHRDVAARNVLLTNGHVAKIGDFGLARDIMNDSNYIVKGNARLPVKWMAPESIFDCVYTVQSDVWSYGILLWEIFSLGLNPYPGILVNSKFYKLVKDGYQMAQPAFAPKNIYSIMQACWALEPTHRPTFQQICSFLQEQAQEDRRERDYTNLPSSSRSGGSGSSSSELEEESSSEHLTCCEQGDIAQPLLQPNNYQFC

As to `CCOc1cc(C(=O)N2CCC(N3CCN(C)CC3)CC2)ccc1Nc1ncc2c(n1)N(C1CCCC1)c1ccccc1C(=O)N2C` [Compound 26], at panel of 442 kinases [1], the “KINOMEscan: CSF1R” value was 100. The “KINOMEscan: MET(Y1235D)” value at panel of 442 kinases [2] worked out at 100. Besides, the “KINOMEscan: EPHB3” value at panel of 442 kinases [3] was 100.
Turning to `COc1cc(C(=O)N2CCC(N3CCN(C)CC3)CC2)ccc1Nc1ncc2c(n1)N1CCc3cccc(c31)C(=O)N2C` [Compound 24], on panel of 442 kinases [1], the “KINOMEscan: CSF1R” value is recorded as 57. Also, at panel of 442 kinases [2], the “KINOMEscan: MET(Y1235D)” value is 74.
`COc1cc(C(=O)N2CCC(N3CCN(C)CC3)CC2)ccc1Nc1ncc2c(n1)N(C)c1ccccc1C(=O)N2C` [15 (LRRK2-IN-1)]: the “KINOMEscan: CSF1R” value on panel of 442 kinases [1] worked out at 98. Besides, the “KINOMEscan: MET(Y1235D)” value on panel of 442 kinases [2] is 100. Also, the “KINOMEscan: EPHB3” value at panel of 442 kinases [3] was found to be 100.
Turning to `COc1cc(C(=O)N2CCC(N3CCN(C)CC3)CC2)ccc1Nc1ncc2c(n1)N(C1CCCC1)c1ccccc1C(=O)N2C` [Compound 25, 11-cyclopentyl-2-((2-methoxy-4-(4-(4-methylpiperazin-1-yl)piperidine-1-carbonyl)phenyl)amino)-5-methyl-5H-benzo[e]pyrimido[5,4-b][1,4]diazepin-6(11H)-one], the “KINOMEscan: CSF1R” value on panel of 442 kinases [1] is listed as 56. The “KINOMEscan: MET(Y1235D)” value at panel of 442 kinases [2] is 100. Besides, the “KINOMEscan: EPHB3” value on panel of 442 kinases [3] is 96.
